# Assay results taken from patent US9868746B2, “Substituted 5-aminothieno[2,3-C]pyridazine-6-carboxamide analogs as positive allosteric modulators of the muscarinic acetylcholine receptor M4” (Vanderbilt University, priority 2012, dated 2018).
# pEC50: −log10 of the molar value.
# Molecular target: T1, mAChR M4 (Homo sapiens, UniProt P08173)
# T1 construct: expressed in transfected cells; host or cells: CHO-K1 cells stably transfected with M4 cDNA and chimeric G-protein Gqi5
# T1 sequence (P08173 1-479): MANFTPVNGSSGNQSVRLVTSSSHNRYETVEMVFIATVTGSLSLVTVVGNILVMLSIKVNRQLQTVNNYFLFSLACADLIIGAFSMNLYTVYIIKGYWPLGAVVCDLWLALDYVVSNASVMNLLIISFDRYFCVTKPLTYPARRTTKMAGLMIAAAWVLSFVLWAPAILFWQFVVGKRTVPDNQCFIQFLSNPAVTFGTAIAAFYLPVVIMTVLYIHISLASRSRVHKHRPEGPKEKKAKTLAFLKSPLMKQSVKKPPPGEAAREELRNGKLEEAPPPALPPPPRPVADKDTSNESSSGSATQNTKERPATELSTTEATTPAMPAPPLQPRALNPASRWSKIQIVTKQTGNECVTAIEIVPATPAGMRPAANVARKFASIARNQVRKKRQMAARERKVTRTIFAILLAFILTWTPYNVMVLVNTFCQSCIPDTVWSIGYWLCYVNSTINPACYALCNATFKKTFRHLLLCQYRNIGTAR
# Test: mAChR M4 cell-based functional assay (calcium mobilization, potentiation of EC20 acetylcholine response)
# Conditions: for Emax at 30 µM: % ACh maximum at 30 μM; for pEC50: mAChR M4 cell-based functional assay, >10,000 estimated for low potency compounds without plateau, read-out: EC50
SMILES,Emax at 30 µM [%],pEC50
Cc1nnc2sc(C(=O)NCc3ccccn3)c(N)c2c1C [Example B13],58,6.00
Cc1nnc2sc(C(=O)N3CC4CN(c5ccc(C#N)nc5)CC4C3)c(N)c2c1C (centres unmarked) [Example B436],49,6.01
COc1cccc(SC2CN(C(=O)c3sc4nnc(C)c(C)c4c3N)C2)c1 [Example B418],56,6.80
Cc1nnc2sc(C(=O)NCc3ccc(O)cc3)c(N)c2c1C [Example B95],66,7.33
Cc1nnc2sc(C(=O)NCC3CCS(=O)(=O)CC3)c(N)c2c1C [Example B149],44,< 5.00
Cc1nnc2sc(C(=O)N3CC(F)(c4ccncc4)C3)c(N)c2c1C [Example B312],55,5.55
COc1ccc(C2(NC(=O)c3sc4nnc(C)c(C)c4c3N)CC2)cc1 [Example B301],48,5.19
Cc1nnc2sc(C(=O)N3CC(F)(c4ccc(-c5cncnc5)cc4)C3)c(N)c2c1C [Example B326],50,6.41
Cc1nnc2sc(C(=O)N3CCC(NS(=O)(=O)CCCc4ccccc4)C3)c(N)c2c1C (centres unmarked) [Example B234],50,6.09
Cc1nnc2sc(C(=O)NCc3ccncn3)c(N)c2c1C [Example B17],83,< 5.00
COc1ccc(C(C)CNC(=O)c2sc3nnc(C)c(C)c3c2N)cc1 (centres unmarked) [Example B73],40,6.46
Nc1c(C(=O)NCc2ccccc2)sc2nnc3c(c12)CCCC3 [Example B51],51,6.89
Cc1nnc2sc(C(=O)NC3CCN(C(=O)N4CCOCC4)C3)c(N)c2c1C (centres unmarked) [Example B208],73,5.68
COCc1ccc(CNC(=O)c2sc3nnc(C)c(C)c3c2N)cc1 [Example B91],53,7.01
Cc1nnc2sc(C(=O)NCc3ccc(OC(F)F)nc3)c(N)c2c1C [Example B412],85,7.17
Cc1nnc2sc(C(=O)N3CC(Br)(c4ccccc4)C3)c(N)c2c1C [Example B191],45,5.68
Cc1nnc2sc(C(=O)NC34CC(C3)C4)c(N)c2c1C [Example B248],81,6.20

SMILES,Emax at 30 µM [%],pEC50
Cc1nnc2sc(C(=O)N3CC(F)(c4cccc(-c5cncnc5)c4)C3)c(N)c2c1C [Example B317],47,6.54
CC(O)(c1ccc(CNC(=O)c2sc3nnc4c(c3c2N)CCCC4)cc1)C(F)(F)F (centres unmarked) [Example B188],56,6.05
Cc1nnc2sc(C(=O)NCc3ccc(-c4cnn(C)c4)cc3)c(N)c2c1C [Example B447],64,< 5.00
Cc1nnc2sc(C(=O)NCc3cnn(C)c3)c(N)c2c1C [Example B89],58,6.49
Cc1nnc2sc(C(=O)NCc3ccc4nonc4c3)c(N)c2c1C [Example B43],75,6.57
COc1ccc(CNC(=O)c2sc3nnc(C)c(C)c3c2N)cc1Br [Example B482],67,7.06
Cc1nnc2sc(C(=O)NCc3ccc(-n4ccccc4=O)c(F)c3)c(N)c2c1C [Example B483],69,7.33
Cc1nnc2sc(C(=O)NCc3ccc(-c4cc(O)ccc4Cl)cc3)c(N)c2c1C [Example B500],72,5.74
Cc1nnc2sc(C(=O)N3CC4CN(C5CCCC5)CC4C3)c(N)c2c1C (centres unmarked) [Example B286],19,5.32
"Cc1nnc2sc(C(=O)NCc3ccc(C(C)(O)C(F)(F)F)cc3)c(N)c2c1C (single isomer, unassigned) [Example B186]",75,7.72
Cc1nnc2sc(C(=O)NCc3ccc(S(=O)(=O)c4ccccc4)cc3)c(N)c2c1C [Example B505],63,6.96
COc1cncc(-c2ccc(CNC(=O)c3sc4nnc(C)c(C)c4c3N)cc2)c1 [Example B488],76,7.31
Nc1c(C(=O)NCc2cccc(F)c2F)sc2nnc3c(c12)CCCC3 [Example B57],47,7.00
Cc1nnc2sc(C(=O)NCc3ccc(OC(F)F)cc3)c(N)c2c1C [Example B168],76,7.89
COc1ccc(CNC(=O)c2sc3nnc(C)c(C)c3c2N)cc1C(F)(F)F [Example B171],71,7.64
COC1(c2ccccc2)CN(C(=O)c2sc3nnc(C)c(C)c3c2N)C1 [Example B170],60,6.33
Nc1c(C(=O)NCc2ccncc2)sc2nnc(-c3ccccc3)c(-c3ccccc3)c12 [Example B39],40,< 5.00

# More lines, now with the values ahead:
Emax at 30 µM [%],pEC50,SMILES
43,5.96,Cc1nnc2sc(C(=O)N3CC(NS(=O)(=O)c4cccc5ncccc45)C3)c(N)c2c1C [Example B180]
62,7.74,"Cc1nnc2sc(C(=O)N[C@H]3C[C@@H]3c3ccc(S(C)(=O)=O)cc3)c(N)c2c1C (single isomer, unassigned) [Example B110]"
88,6.52,Cc1nnc2sc(C(=O)NC3CN(C(=O)c4ccc(F)cc4F)C3)c(N)c2c1C [Example B391]
72,7.37,Cc1nnc2sc(C(=O)NC3CN(S(=O)(=O)c4ccccc4F)C3)c(N)c2c1C [Example B140]
72,5.89,Cc1nnc2sc(C(=O)NC3CCN(C(=O)CCc4ccccc4)C3)c(N)c2c1C (centres unmarked) [Example B221]
70,5.85,Cc1nnc2sc(C(=O)N3CCC(NS(=O)(=O)c4cccc(F)c4)C3)c(N)c2c1C (centres unmarked) [Example B211]
65,5.35,COc1cccc(S(=O)(=O)NC2CCN(C(=O)c3sc4nnc(C)c(C)c4c3N)C2)c1 (centres unmarked) [Example B213]
49,5.35,Cc1nnc2sc(C(=O)NCCN(C)S(=O)(=O)c3ccc(F)cc3)c(N)c2c1C [Example B358]
76,6.74,Cc1nnc2sc(C(=O)NC3CCN(c4ccc(C(F)(F)F)cc4)C3)c(N)c2c1C (centres unmarked) [Example B283]
40,6.09,Cc1nnc2sc(C(=O)N3CC(S(=O)(=O)c4ccc(F)cc4F)C3)c(N)c2c1C [Example B432]
58,,COc1ccc(CNC(=O)c2sc3nnc(C)c(C)c3c2N)cc1F [Example B90]
67,6.36,Cc1nnc2sc(C(=O)NC3CN(c4ncc(-c5ccccc5)s4)C3)c(N)c2c1C [Example B426]
60,6.92,Cc1cccc(N2CCC(NC(=O)c3sc4nnc(C)c(C)c4c3N)C2)c1 (centres unmarked) [Example B265]
83,5.77,Cc1nnc2sc(C(=O)NC3CCN(S(C)(=O)=O)C3)c(N)c2c1C (centres unmarked) [Example B252]
72,6.00,Cc1nnc2sc(C(=O)NC3CN(S(=O)(=O)c4cn(C)cn4)C3)c(N)c2c1C [Example B136]
74,7.12,Cc1nnc2sc(C(=O)NC3CN(C(=O)c4ccc5c(c4)OCO5)C3)c(N)c2c1C [Example B133]
62,7.36,Cc1nnc2sc(C(=O)NC3CN(C(=O)Nc4ccccc4F)C3)c(N)c2c1C [Example B338]
71,5.52,COc1ccccc1N1CCC(NC(=O)c2sc3nnc(C)c(C)c3c2N)C1 (centres unmarked) [Example B271]
71,6.37,Cc1nnc2sc(C(=O)NC3CCN(C(=O)c4ccc(F)c(F)c4)C3)c(N)c2c1C (centres unmarked) [Example B255]
66,7.62,Cc1nnc2sc(C(=O)NC3CCN(c4ccccc4)C3)c(N)c2c1C (centres unmarked) [Example B113]
74,7.00,Cc1nnc2sc(C(=O)NC3CCN(C(=O)Oc4ccccc4)C3)c(N)c2c1C (centres unmarked) [Example B203]
62,7.92,Cc1nnc2sc(C(=O)NC3CN(c4ccccc4)C3)c(N)c2c1C [Example B481]
82,7.18,Cc1nnc2sc(C(=O)NC3CN(S(=O)(=O)c4ccc(F)cc4F)C3)c(N)c2c1C [Example B146]
82,7.07,COc1cccc(C(=O)N2CC(NC(=O)c3sc4nnc(C)c(C)c4c3N)C2)c1 [Example B127]
78,5.34,Cc1nnc2sc(C(=O)N3CCC(NC(=O)c4ccccc4)C3)c(N)c2c1C (centres unmarked) [Example B246]
78,6.64,COc1cccc(C(=O)N2CCC(NC(=O)c3sc4nnc(C)c(C)c4c3N)C2)c1 (centres unmarked) [Example B231]
73,7.77,Cc1nnc2sc(C(=O)NC3CN(c4nc5ccccc5s4)C3)c(N)c2c1C [Example B422]
76,6.82,Cc1nnc2sc(C(=O)NC3CN(C(=O)c4ccc(F)c(F)c4)C3)c(N)c2c1C [Example B131]
79,6.77,Cc1nnc2sc(C(=O)NC3CCN(c4ccc(F)cc4)C3)c(N)c2c1C (centres unmarked) [Example B346]
